Where two headings read alike, the source gives them in different places.
How the values were obtained:
human Gal-3 (hGal-3) = human Gal-3 (hGal-3) (Homo sapiens (Human), UniProt P17931); assay: competitive binding assay: biotinylated hGal-3 binding to microplate-adsorbed asialofetuin (ASF)
How it was run: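 Compounds serially diluted in DMSO compete with asialofetuin for biotinylated human Gal-3; plates are incubated 3 h at 4 °C, washed, then treated 1 h at 4 °C with streptavidin-peroxidase (80 ng/mL) and developed with ABTS. IC50 values are means of several measurements.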

human Gal-1 (hGal-1) = human Gal-1 (hGal-1) (Homo sapiens (Human), UniProt P09382); assay: competitive binding assay: biotinylated hGal-1 binding to microplate-adsorbed asialofetuin (ASF); conditions: Table 15; read-out: IC50 (Galectin-1 inhibition)
How it was run: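 Biotinylated human Gal-1 (300-1000 ng/mL) competes with serially diluted compound for binding to ASF-coated plates, 3 h at 4° C. Bound protein detected with streptavidin-peroxidase and ABTS substrate (spectrophotometric). IC50 given as mean of several measurements.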

[1] = Table 9, 2-OMe-Gal inhibitors, read-out: IC50 (Gal-3 inhibition)
[2] = Gal-3 inhibition, binding of biotinylated hGal-3 to ASF, mean values, read-out: IC50
[3] = Table 10, 2-OMe-Gal inhibitors, read-out: IC50 (Gal-3 inhibition)

Chain of human Gal-1 (hGal-1) (P09382 whole entry): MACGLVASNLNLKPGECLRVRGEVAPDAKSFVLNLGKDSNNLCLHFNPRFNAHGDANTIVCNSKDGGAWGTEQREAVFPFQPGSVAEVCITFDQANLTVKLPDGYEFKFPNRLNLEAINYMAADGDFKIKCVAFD
Chain of human Gal-3 (hGal-3) (P17931 whole entry): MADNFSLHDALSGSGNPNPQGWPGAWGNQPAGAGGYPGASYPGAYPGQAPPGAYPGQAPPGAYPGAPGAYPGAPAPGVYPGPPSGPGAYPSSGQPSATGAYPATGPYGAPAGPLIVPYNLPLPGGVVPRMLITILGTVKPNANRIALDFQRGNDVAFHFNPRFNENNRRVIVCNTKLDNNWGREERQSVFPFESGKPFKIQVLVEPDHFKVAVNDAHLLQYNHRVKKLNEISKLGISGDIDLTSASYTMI

SMILES	IC50 (human Gal-3 (hGal-3); [1]) [µM]	IC50 (human Gal-1 (hGal-1)) [µM]	IC50 (human Gal-3 (hGal-3); [2]) [µM]	IC50 (human Gal-3 (hGal-3); [3]) [µM]
CO[C@@H]1[C@@H](n2cc(-c3cc(F)c(F)c(F)c3)nn2)[C@@H](O)[C@@H](CO)O[C@H]1S[C@H](c1ncccc1C(C)C)C1(O)CCC(F)(F)CC1 [Example 2.44.132R.I., (2R,3R,4S,5R,6S)-6-(((R)-(4,4-Difluoro-1-hydroxycyclohexyl)(3-isopropylpyridin-2-yl)methyl)thio)-2-(hydroxymethyl)-5-methoxy-4-(4-(3,4,5-trifluorophenyl)-1H-1,2,3-triazol-1-yl)tetrahydro-2H-pyran-3-ol]	0.12	0.1		
CC(C)c1cccnc1[C@H](S[C@@H]1O[C@H](CO)[C@H](O)[C@H](n2cc(-c3cc(F)c(F)c(F)c3)nn2)[C@H]1O)C1(O)CCC(F)(F)CC1 [Example 2.44.132S., (2S,3R,4S,5R,6R)-2-(((S)-(4,4-Difluoro-1-hydroxycyclohexyl)(3-isopropylpyridin-2-yl)methyl)thio)-6-(hydroxymethyl)-4-(4-(3,4,5-trifluorophenyl)-1H-1,2,3-triazol-1-yl)tetrahydro-2H-pyran-3,5-diol]		4.7	2.27	
OC[C@H]1O[C@@H](SC(c2nccnc2Cl)C2(O)CCC(F)(F)CC2)[C@H](O)[C@@H](n2cc(-c3cc(F)c(F)c(F)c3)nn2)[C@H]1O (stereo partly drawn) [Example 2.44.133., (2S,3R,4S,5R,6R)-2-(((3-Chloropyrazin-2-yl)(4,4-difluoro-1-hydroxycyclohexyl)methyl)thio)-6-(hydroxymethyl)-4-(4-(3,4,5-trifluorophenyl)-1H-1,2,3-triazol-1-yl)tetrahydro-2H-pyran-3,5-diol]		0.45	0.04	
CO[C@@H]1[C@@H](n2cc(-c3cc(F)c(F)c(F)c3)nn2)[C@@H](O)[C@@H](CO)O[C@H]1SC(c1nccnc1Cl)C1(O)CCC(F)(F)CC1 (stereo partly drawn) [Example 2.44.133.I., (2R,3R,4S,5R,6S)-6-(((3-Chloropyrazin-2-yl)(4,4-difluoro-1-hydroxycyclohexyl)methyl)thio)-2-(hydroxymethyl)-5-methoxy-4-(4-(3,4,5-trifluorophenyl)-1H-1,2,3-triazol-1-yl)tetrahydro-2H-pyran-3-ol]		1.22		0.17
OC[C@H]1O[C@@H](S[C@H](c2nccnc2Cl)C2(O)CCC(F)(F)CC2)[C@H](O)[C@@H](n2cc(-c3cc(F)c(F)c(F)c3)nn2)[C@H]1O [Example 2.44.133R., (2S,3R,4S,5R,6R)-2-(((R)-(3-Chloropyrazin-2-yl)(4,4-difluoro-1-hydroxycyclohexyl)methyl)thio)-6-(hydroxymethyl)-4-(4-(3,4,5-trifluorophenyl)-1H-1,2,3-triazol-1-yl)tetrahydro-2H-pyran-3,5-diol]		0.16	0.02	
OC[C@H]1O[C@@H](S[C@@H](c2nccnc2Cl)C2(O)CCC(F)(F)CC2)[C@H](O)[C@@H](n2cc(-c3cc(F)c(F)c(F)c3)nn2)[C@H]1O [Example 2.44.133S., (2S,3R,4S,5R,6R)-2-(((S)-(3-Chloropyrazin-2-yl)(4,4-difluoro-1-hydroxycyclohexyl)methyl)thio)-6-(hydroxymethyl)-4-(4-(3,4,5-trifluorophenyl)-1H-1,2,3-triazol-1-yl)tetrahydro-2H-pyran-3,5-diol]		15.8	1.83	
OC[C@H]1O[C@@H](SC(c2ncccc2C2CC2)C2(O)CCC(F)(F)CC2)[C@H](O)[C@@H](n2cc(-c3cc(F)c(F)c(F)c3)nn2)[C@H]1O (stereo partly drawn) [Example 2.44.134., (2S,3R,4S,5R,6R)-2-(((3-Cyclopropylpyridin-2-yl)(4,4-difluoro-1-hydroxycyclohexyl)methyl)thio)-6-(hydroxymethyl)-4-(4-(3,4,5-trifluorophenyl)-1H-1,2,3-triazol-1-yl)tetrahydro-2H-pyran-3,5-diol]		0.14	0.07	
OC[C@H]1O[C@@H](S[C@H](c2ncccc2C2CC2)C2(O)CCC(F)(F)CC2)[C@H](O)[C@@H](n2cc(-c3cc(F)c(F)c(F)c3)nn2)[C@H]1O [Example 2.44.134R., (2S,3R,4S,5R,6R)-2-(((R)-(3-Cyclopropylpyridin-2-yl)(4,4-difluoro-1-hydroxycyclohexyl)methyl)thio)-6-(hydroxymethyl)-4-(4-(3,4,5-trifluorophenyl)-1H-1,2,3-triazol-1-yl)tetrahydro-2H-pyran-3,5-diol]		0.05	0.01	
CO[C@@H]1[C@@H](n2cc(-c3cc(F)c(F)c(F)c3)nn2)[C@@H](O)[C@@H](CO)O[C@H]1S[C@H](c1ncccc1C1CC1)C1(O)CCC(F)(F)CC1 [Example 2.44.134R.I., (2R,3R,4S,5R,6S)-6-(((R)-(3-Cyclopropylpyridin-2-yl)(4,4-difluoro-1-hydroxycyclohexyl)methyl)thio)-2-(hydroxymethyl)-5-methoxy-4-(4-(3,4,5-trifluorophenyl)-1H-1,2,3-triazol-1-yl)tetrahydro-2H-pyran-3-ol [1,3-di-deoxy-1-((4,4-difluoro-1-hydroxy-cyclohexan-1-yl)-(3-(-cyclopropyl)pyridin-2-yl)methyl-(R)-thio)-2-O-methyl-3-[4-(3,4,5-trifluorophenyl)-1H-1,2,3-triazol-1-yl]-b-D-galactopyranoside]]	0.06	0.11		
OC[C@H]1O[C@@H](S[C@@H](c2ncccc2C2CC2)C2(O)CCC(F)(F)CC2)[C@H](O)[C@@H](n2cc(-c3cc(F)c(F)c(F)c3)nn2)[C@H]1O [Example 2.44.134S., (2S,3R,4S,5R,6R)-2-(((S)-(3-Cyclopropylpyridin-2-yl)(4,4-difluoro-1-hydroxycyclohexyl)methyl)thio)-6-(hydroxymethyl)-4-(4-(3,4,5-trifluorophenyl)-1H-1,2,3-triazol-1-yl)tetrahydro-2H-pyran-3,5-diol]		2.7	0.7	
CO[C@@H]1[C@@H](n2cc(-c3cc(F)c(F)c(F)c3)nn2)[C@@H](O)[C@@H](CO)O[C@H]1SC(c1c(C)cnn1C)C1(O)CCC(F)(F)CC1 (stereo partly drawn) [Example 2.44.136.I., (2R,3R,4S,5R,6S)-6-(((4,4-Difluoro-1-hydroxycyclohexyl)(1,4-dimethyl-1H-pyrazol-5-yl)methyl)thio)-2-(hydroxymethyl)-5-methoxy-4-(4-(3,4,5-trifluorophenyl)-1H-1,2,3-triazol-1-yl)tetrahydro-2H-pyran-3-ol]		2.53		0.42

Results, then the molecule that gave them:

IC50 (human Gal-3 (hGal-3); [1]) [µM]	IC50 (human Gal-1 (hGal-1)) [µM]	IC50 (human Gal-3 (hGal-3); [2]) [µM]	IC50 (human Gal-3 (hGal-3); [3]) [µM]	SMILES
	0.66		0.04	CO[C@@H]1[C@@H](n2cc(-c3cc(F)c(F)c(F)c3)nn2)[C@@H](O)[C@@H](CO)O[C@H]1S[C@H](c1nccnc1Cl)C1(O)CCC(F)(F)CC1 [Example 2.44.133R.I., (2R,3R,4S,5R,6S)-6-(((R)-(3-Chloropyrazin-2-yl)(4,4-difluoro-1-hydroxycyclohexyl)methyl)thio)-2-(hydroxymethyl)-5-methoxy-4-(4-(3,4,5-trifluorophenyl)-1H-1,2,3-triazol-1-yl)tetrahydro-2H-pyran-3-ol [1,3-di-deoxy-1-((4,4-difluoro-1-hydroxy-cyclohexan-1-yl)-(3-(-chloro)pyrazin-2-yl)methyl-(R)-thio)-2-O-methyl-3-[4-(3,4,5-trifluorophenyl)-1H-1,2,3-triazol-1-yl]-b-D-galactopyranoside]]
	7.54		2.71	CO[C@@H]1[C@@H](n2cc(-c3cc(F)c(F)c(F)c3)nn2)[C@@H](O)[C@@H](CO)O[C@H]1S[C@@H](c1nccnc1Cl)C1(O)CCC(F)(F)CC1 [Example 2.44.133S.I., (2R,3R,4S,5R,6S)-6-(((S)-(3-Chloropyrazin-2-yl)(4,4-difluoro-1-hydroxycyclohexyl)methyl)thio)-2-(hydroxymethyl)-5-methoxy-4-(4-(3,4,5-trifluorophenyl)-1H-1,2,3-triazol-1-yl)tetrahydro-2H-pyran-3-ol]
	0.45	0.07		Cc1ccnnc1C(S[C@@H]1O[C@H](CO)[C@H](O)[C@H](n2cc(-c3cc(F)c(F)c(F)c3)nn2)[C@H]1O)C1(O)CCC(F)(F)CC1 (stereo partly drawn) [Example 2.44.135., (2S,3R,4S,5R,6R)-2-(((4,4-Difluoro-1-hydroxycyclohexyl)(4-methylpyridazin-3-yl)methyl)thio)-6-(hydroxymethyl)-4-(4-(3,4,5-trifluorophenyl)-1H-1,2,3-triazol-1-yl)tetrahydro-2H-pyran-3,5-diol]
	0.22	0.04		Cc1ccnnc1[C@@H](S[C@@H]1O[C@H](CO)[C@H](O)[C@H](n2cc(-c3cc(F)c(F)c(F)c3)nn2)[C@H]1O)C1(O)CCC(F)(F)CC1 [Example 2.44.135R., (2S,3R,4S,5R,6R)-2-(((R)-(4,4-Difluoro-1-hydroxycyclohexyl)(4-methylpyridazin-3-yl)methyl)thio)-6-(hydroxymethyl)-4-(4-(3,4,5-trifluorophenyl)-1H-1,2,3-triazol-1-yl)tetrahydro-2H-pyran-3,5-diol]
0.07	0.2			CO[C@@H]1[C@@H](n2cc(-c3cc(F)c(F)c(F)c3)nn2)[C@@H](O)[C@@H](CO)O[C@H]1S[C@H](c1nnccc1C)C1(O)CCC(F)(F)CC1 [Example 2.44.135R.I., (2R,3R,4S,5R,6S)-6-(((R)-(4,4-Difluoro-1-hydroxycyclohexyl)(4-methylpyridazin-3-yl)methyl)thio)-2-(hydroxymethyl)-5-methoxy-4-(4-(3,4,5-trifluorophenyl)-1H-1,2,3-triazol-1-yl)tetrahydro-2H-pyran-3-ol]
	5.43	2.79		Cc1ccnnc1[C@H](S[C@@H]1O[C@H](CO)[C@H](O)[C@H](n2cc(-c3cc(F)c(F)c(F)c3)nn2)[C@H]1O)C1(O)CCC(F)(F)CC1 [Example 2.44.135S., (2S,3R,4S,5R,6R)-2-(((S)-(4,4-Difluoro-1-hydroxycyclohexyl)(4-methylpyridazin-3-yl)methyl)thio)-6-(hydroxymethyl)-4-(4-(3,4,5-trifluorophenyl)-1H-1,2,3-triazol-1-yl)tetrahydro-2H-pyran-3,5-diol]

From patent US12404295B2, “(Hetero)aryl-methyl-thio-beta-D-galactopyranoside derivatives” (Idorsia Pharmaceuticals Ltd, priority 2019, dated 2025)
